Results from ChEMBL document CHEMBL3868599, “Strategy for designing selective α-l-rhamnosidase inhibitors: Synthesis and biological evaluation of l-DMDP cyclic isothioureas” (Bioorg Med Chem, 2017).

Columns and labels:
Penicillium decumbens [1] = test: Inhibition of Penicillium decumbens alpha-L-rhamnosidase at 1000 uM using p-nitrophenyl-glycoside as substrate by spectrophotometric method
Prunus dulcis [2] = test: Inhibition of almond beta-glucosidase at 1000 uM using p-nitrophenyl-glycoside as substrate by spectrophotometric method
Bos taurus = species on record: Bos taurus; test: Inhibition of bovine liver beta-glucosidase at 1000 uM using p-nitrophenyl-glycoside as substrate by spectrophotometric method
Homo sapiens = species on record: Homo sapiens; test: Inhibition of human lysosomal beta-glucosidase at 1000 uM using 4-methylumbelliferyl-beta-D-glucopyranoside as substrate preincubated for 45 mins followed by substrate addition measured after 30 mins by fluorescence spectrophotometric method
Aspergillus niger [3] = test: Inhibition of Aspergillus niger amyloglucosidase assessed as D-glucose level at 1000 uM using maltose as substrate measured after 10 to 30 mins
Oryza sativa [4] = test: Inhibition of rice alpha-glucosidase at 1000 uM using p-nitrophenyl-glycoside as substrate by spectrophotometric method
Rattus norvegicus [5] = species on record: Rattus norvegicus; test: Inhibition of rat intestinal maltase assessed as D-glucose level at 1000 uM using maltose as substrate measured after 10 to 30 mins
[6] = molecular target: T1, Beta-galactosidase (Bos taurus) (UniProt Q58D55); test: Inhibition of bovine liver beta-galactosidase at 1000 uM using p-nitrophenyl-glycoside as substrate by spectrophotometric method
T1 sequence (whole entry): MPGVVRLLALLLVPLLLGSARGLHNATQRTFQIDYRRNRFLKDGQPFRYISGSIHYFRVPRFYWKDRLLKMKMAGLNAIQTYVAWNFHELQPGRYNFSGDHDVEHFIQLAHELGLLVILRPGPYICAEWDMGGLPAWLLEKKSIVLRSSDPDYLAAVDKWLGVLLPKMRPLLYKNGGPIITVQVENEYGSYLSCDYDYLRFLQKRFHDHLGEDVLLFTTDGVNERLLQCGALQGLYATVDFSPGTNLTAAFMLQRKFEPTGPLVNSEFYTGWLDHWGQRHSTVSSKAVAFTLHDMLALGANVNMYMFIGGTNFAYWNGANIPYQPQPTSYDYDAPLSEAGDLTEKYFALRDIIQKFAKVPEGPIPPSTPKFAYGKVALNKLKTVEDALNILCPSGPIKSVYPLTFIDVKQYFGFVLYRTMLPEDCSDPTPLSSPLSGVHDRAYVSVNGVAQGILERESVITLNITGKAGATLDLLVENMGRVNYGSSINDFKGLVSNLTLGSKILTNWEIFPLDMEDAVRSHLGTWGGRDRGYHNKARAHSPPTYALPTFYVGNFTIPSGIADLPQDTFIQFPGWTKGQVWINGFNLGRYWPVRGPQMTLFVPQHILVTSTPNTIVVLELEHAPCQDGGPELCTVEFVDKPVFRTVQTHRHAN

[7] = molecular target: T2, Tissue alpha-L-fucosidase (Bos taurus) (UniProt Q2KIM0); test: Inhibition of bovine kidney alpha-L-fucosidase at 1000 uM using p-nitrophenyl-glycoside as substrate by spectrophotometric method
T2 sequence (whole entry): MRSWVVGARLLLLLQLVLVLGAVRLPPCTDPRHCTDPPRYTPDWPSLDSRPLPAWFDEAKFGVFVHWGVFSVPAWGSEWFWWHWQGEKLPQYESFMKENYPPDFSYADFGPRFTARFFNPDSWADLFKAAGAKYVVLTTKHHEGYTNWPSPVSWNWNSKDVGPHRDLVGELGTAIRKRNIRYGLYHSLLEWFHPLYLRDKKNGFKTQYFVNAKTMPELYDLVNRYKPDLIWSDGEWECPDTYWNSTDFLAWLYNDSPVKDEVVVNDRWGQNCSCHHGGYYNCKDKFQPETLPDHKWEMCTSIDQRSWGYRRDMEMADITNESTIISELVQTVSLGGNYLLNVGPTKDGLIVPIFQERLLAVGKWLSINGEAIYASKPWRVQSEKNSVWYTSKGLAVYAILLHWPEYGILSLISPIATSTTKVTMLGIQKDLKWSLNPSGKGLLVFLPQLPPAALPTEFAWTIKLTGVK

[8] = molecular target: T3, Uncharacterized protein (Sus scrofa) (UniProt I3LIR5); test: Inhibition of porcine kidney trehalase assessed as D-glucose level at 1000 uM using maltose as substrate measured after 10 to 30 mins
T3 sequence (whole entry): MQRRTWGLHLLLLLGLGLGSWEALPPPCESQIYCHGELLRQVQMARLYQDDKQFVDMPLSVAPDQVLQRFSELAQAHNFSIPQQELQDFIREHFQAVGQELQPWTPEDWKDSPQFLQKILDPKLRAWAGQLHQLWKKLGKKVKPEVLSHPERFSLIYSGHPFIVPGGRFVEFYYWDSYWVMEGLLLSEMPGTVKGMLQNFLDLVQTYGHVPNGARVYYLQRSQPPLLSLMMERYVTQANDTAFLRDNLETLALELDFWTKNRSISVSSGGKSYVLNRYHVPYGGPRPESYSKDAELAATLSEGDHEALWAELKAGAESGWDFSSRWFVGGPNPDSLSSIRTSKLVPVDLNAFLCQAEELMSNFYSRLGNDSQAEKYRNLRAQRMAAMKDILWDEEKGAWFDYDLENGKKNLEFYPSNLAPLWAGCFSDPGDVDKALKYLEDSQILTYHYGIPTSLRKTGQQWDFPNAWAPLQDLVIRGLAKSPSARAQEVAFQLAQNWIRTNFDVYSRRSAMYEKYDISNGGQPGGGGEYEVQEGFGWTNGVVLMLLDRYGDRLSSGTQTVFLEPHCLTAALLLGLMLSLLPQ

Escherichia coli [9] = test: Inhibition of Escherichia coli beta-glucuronidase at 1000 uM using p-nitrophenyl-glycoside as substrate by spectrophotometric method
Penicillium decumbens [10] = test: Inhibition of Penicillium decumbens alpha-L-rhamnosidase at 100 uM using p-nitrophenyl-glycoside as substrate by spectrophotometric method
Prunus dulcis [11] = test: Inhibition of almond beta-glucosidase at 100 uM using p-nitrophenyl-glycoside as substrate by spectrophotometric method
[12] = Inhibition of bovine liver beta-glucosidase using p-nitrophenyl-glycoside as substrate by spectrophotometric method; parameters: species or system Bos taurus
[13] = Inhibition of human lysosomal beta-glucosidase using 4-methylumbelliferyl-beta-D-glucopyranoside as substrate preincubated for 45 mins followed by substrate addition measured after 30 mins by fluorescence spectrophotometric method
Oryza sativa [14] = test: Inhibition of rice alpha-glucosidase at 100 uM using p-nitrophenyl-glycoside as substrate by spectrophotometric method
Rattus norvegicus [15] = species on record: Rattus norvegicus; test: Inhibition of rat intestinal maltase assessed as D-glucose level at 100 uM using maltose as substrate measured after 10 to 30 mins
Beta-galactosidase = molecular target: T4, Beta-galactosidase (Bos taurus, UniProt Q58D55); test: Inhibition of bovine liver beta-galactosidase using p-nitrophenyl-glycoside as substrate by spectrophotometric method
T4 sequence (Q58D55 whole entry): T1 sequence (whole entry)

Aspergillus niger [16] = test: Inhibition of Aspergillus niger amyloglucosidase assessed as D-glucose level at 100 uM using maltose as substrate measured after 10 to 30 mins
[17] = molecular target: T2, Tissue alpha-L-fucosidase (Bos taurus); test: Inhibition of bovine kidney alpha-L-fucosidase at 100 uM using p-nitrophenyl-glycoside as substrate by spectrophotometric method
[18] = molecular target: T3, Uncharacterized protein (Sus scrofa); test: Inhibition of porcine kidney trehalase assessed as D-glucose level at 100 uM using maltose as substrate measured after 10 to 30 mins
Escherichia coli [19] = test: Inhibition of Escherichia coli beta-glucuronidase at 100 uM using p-nitrophenyl-glycoside as substrate by spectrophotometric method
[20] = Inhibition of Penicillium decumbens alpha-L-rhamnosidase using p-nitrophenyl-glycoside as substrate by spectrophotometric method
[21] = Inhibition of Penicillium decumbens alpha-L-rhamnosidase

Row | SMILES | inhibition (Penicillium decumbens [1]) [%] | inhibition (Prunus dulcis [2]) [%] | inhibition (Aspergillus niger [3]) [%] | inhibition (Oryza sativa [4]) [%] | inhibition (Rattus norvegicus [5]) [%] | inhibition [7] [%] | inhibition [8] [%] | inhibition (Escherichia coli [9]) [%] | IC50 [13] [µM] | IC50 [20] [µM] | other results
1 | CCCCNC(=S)N1[C@H](CO)[C@@H](O)[C@H](O)[C@H]1CO | < 50 | < 50 | < 50 | < 50 | < 50 | < 50 | < 50 | < 50 | – | – | inhibition (Bos taurus): < 50%; inhibition (Homo sapiens): < 50%; inhibition [6]: < 50%
2 | CCCCCCCCCCCCNC(=S)N1[C@@H](CO)[C@H](O)[C@@H](O)[C@@H]1CO | – | – | – | – | – | – | – | – | 73 | – | inhibition (Penicillium decumbens [10]): < 50%; inhibition (Prunus dulcis [11]): < 50%; IC50 [12]: 36 µM; inhibition (Oryza sativa [14]): < 50%; inhibition (Rattus norvegicus [15]): < 50%; IC50 (Beta-galactosidase): 30 µM; inhibition (Aspergillus niger [16]): < 50%; inhibition [17]: < 50%; inhibition [18]: < 50%; inhibition (Escherichia coli [19]): < 50%
3 | OC[C@H]1[C@H](O)[C@@H](O)[C@@H]2CS/C(=N/Cc3cccc(Cl)c3)N12 | – | – | – | – | – | – | – | – | – | 0.7 | –
4 | CCCCCCCCCCCC/N=C1/SC[C@@H]2[C@@H](O)[C@H](O)[C@@H](CO)N12 | – | – | – | – | – | – | – | – | 1 | 67 | inhibition (Prunus dulcis [11]): < 50%; IC50 [12]: 63 µM; inhibition (Oryza sativa [14]): < 50%; inhibition (Rattus norvegicus [15]): < 50%; IC50 (Beta-galactosidase): 32 µM; inhibition (Aspergillus niger [16]): < 50%; inhibition [17]: < 50%; inhibition [18]: < 50%; inhibition (Escherichia coli [19]): < 50%
5 | C[C@@H]1C[C@H](O)[C@H]2[C@@H](O)[C@@H](O)CN2C1 | – | – | – | – | – | – | – | – | – | – | IC50 [21]: 0.032 to 0.034 µM
6 | CCCCCCCCNC(=S)N1[C@H](CO)[C@@H](O)[C@H](O)[C@H]1CO | < 50 | < 50 | < 50 | < 50 | < 50 | < 50 | < 50 | < 50 | 12 | – | IC50 [12]: 689 µM; IC50 (Beta-galactosidase): 414 µM
7 | Cc1ccc(C/N=C2/SC[C@H]3[C@H](O)[C@@H](O)[C@H](CO)N23)cc1 | – | – | – | – | – | – | – | – | – | 1.2 | –
8 | OC[C@H]1[C@@H](O)[C@@H](O)CN1Cc1ccccc1 | – | – | – | – | – | – | – | – | – | – | IC50 [21]: 21 µM
9 | OC[C@H]1[C@@H](O)[C@H](O)[C@@H]2CS/C(=N/Cc3ccc(Cl)c(Cl)c3)N12 | 9.3 | – | – | – | – | – | – | – | – | – | –

Continued, in another order:

Row | inhibition (Penicillium decumbens [1]) [%] | inhibition (Prunus dulcis [2]) [%] | inhibition (Aspergillus niger [3]) [%] | inhibition (Oryza sativa [4]) [%] | inhibition (Rattus norvegicus [5]) [%] | inhibition [7] [%] | inhibition [8] [%] | inhibition (Escherichia coli [9]) [%] | IC50 [13] [µM] | IC50 [20] [µM] | SMILES | other results
10 | – | – | – | – | – | – | – | – | – | 0.45 | OC[C@H]1[C@H](O)[C@@H](O)[C@@H]2CS/C(=N/Cc3cc(Cl)c(Cl)c(Cl)c3)N12 | –
11 | – | < 50 | < 50 | < 50 | < 50 | < 50 | < 50 | < 50 | 16 | 494 | CCCCCC/N=C1/SC[C@@H]2[C@@H](O)[C@H](O)[C@@H](CO)N12 | inhibition (Bos taurus): < 50%; inhibition [6]: < 50%
12 | – | – | – | – | – | – | – | – | – | 2.5 | OC[C@H]1[C@H](O)[C@@H](O)[C@@H]2CS/C(=N/Cc3ccccc3Cl)N12 | –
13 | < 50 | < 50 | < 50 | < 50 | < 50 | < 50 | < 50 | < 50 | 532 | – | CCCC/N=C1/SC[C@@H]2[C@@H](O)[C@H](O)[C@@H](CO)N12 | inhibition (Bos taurus): < 50%; inhibition [6]: < 50%
